Structures can show the parent of a compound that is named as a salt.
Target: T1, HIV integrase (Human immunodeficiency virus type 1 group M subtype B, UniProt P12497, F1332H)
T1 construct: HIV integrase full length gene; made in house; host or cells: Escherichia coli BL21(DE3), plasmid pET21a-INH
Assay: Determination of enzyme (HIV integrase) inhibitory activity
Assay type: biochemical
Settings: recombinant HIV integrase (F185H), strand transfer ELISA, absorbance at 450 nm
Summary of the method: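 Full-length integrase with F185H, expressed in E. coli and purified, was reacted for 60 min at 37 °C with compound and biotinylated donor DNA bound to streptavidin plates. Target DNA was added for 10 min, then anti-digoxigenin-peroxidase detection at A450; IC50 from % inhibition versus enzyme-free blank.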

| Compound | IC50 [nM] |
| --- | --- |
| CNC(=O)c1cn2ccn(Cc3ccc(F)c(Cl)c3)c(=O)c2c(O)c1=O [Example 207, N-methyl-2-(3-chloro-4-fluorobenzyl)-9-hydroxy-1,8-dioxo-1,8-dihydro-2H-pyrido[1,2-a]pyrazine-7-carboxamide] | < 10 |
| CN(C)C(=O)c1cn2ccn(Cc3ccc(F)c(Cl)c3)c(=O)c2c(O)c1=O [Example 208, N,N-dimethyl-2-(3-chloro-4-fluorobenzyl)-9-hydroxy-1,8-dioxo-1,8-dihydro-2H-pyrido[1,2-a]pyrazine-7-carboxamide] | < 10 |
| CS(=O)(=O)CCNC(=O)c1cn2ccn(Cc3cccc(Cl)c3)c(=O)c2c(O)c1=O [Example 209, N-(2-methanesulfonylethyl)-2-(3-chlorobenzyl)-9-hydroxy-1,8-dioxo-1,8-dihydro-2H-pyrido[1,2-a]pyrazine-7-carboxamide] | 10 to 100 |
| O=C(NCCN1CCCC1=O)c1cn2ccn(Cc3cccc(Cl)c3)c(=O)c2c(O)c1=O [Example 210, N-[2-(2-oxopyrrolidin-1-yl)ethyl)-2-(3-chlorobenzyl)-9-hydroxy-1,8-dioxo-1,8-dihydro-2H-pyrido[1,2-a]pyrazine-7-carboxamide] | 10 to 100 |
| CN(c1cn2ccn(Cc3cccc(Cl)c3)c(=O)c2c(O)c1=O)S(C)(=O)=O [Example 211, N-[2-(3-chlorobenzyl)-9-hydroxy-1,8-dioxo-1,8-dihydro-2H-pyrido[1,2-a]pyrazin-7-yl]-N-methylmethanesulfonamide] | < 10 |
| COc1cc(Cl)cc(Cn2ccn3ccc(=O)c(O)c3c2=O)c1 [Example 212, 2-(3-chloro-5-methoxybenzyl)-9-hydroxy-2H-pyrido[1,2-a]pyrazine-1,8-dione hydrochloride] | 10 to 100 |
| O=C(NCc1ccncc1)c1cn2ccn(Cc3cccc(Cl)c3)c(=O)c2c(O)c1=O [Example 213, N-(pyridin-4-ylmethyl)-2-(3-chlorobenzyl)-9-hydroxy-1,8-dioxo-1,8-dihydro-2H-pyrido[1,2-a]pyrazine-7-carboxamide] | 10 to 100 |
| O=C(NCc1ccc(F)cc1)c1cn2ccn(Cc3cccc(Cl)c3)c(=O)c2c(O)c1=O [Example 214, N-(4-fluorobenzyl)-2-(3-chlorobenzyl)-9-hydroxy-1,8-dioxo-1,8-dihydro-2H-pyrido[1,2-a]pyrazine-7-carboxamide] | < 10 |
| O=C1c2c(O)c(=O)c(-c3nccs3)cn2CCN1Cc1cccc(Cl)c1 [Example 215, 2-(3-chlorobenzyl)-9-hydroxy-7-(thiazol-2-yl)-3,4-dihydro-2H-pyrido[1,2-a]pyrazine-1,8-dione] | < 10 |
| O=c1c(CO)cn2ccn(Cc3cccc(Cl)c3)c(=O)c2c1O [Example 216, 2-(3-chlorobenzyl)-9-hydroxy-7-hydroxymethyl-2H-pyrido[1,2-a]pyrazine-1,8-dione hydrochloride] | 10 to 100 |
| CC(C)(C)C(=O)c1cn2ccn(Cc3ccc(F)c(Cl)c3)c(=O)c2c(O)c1=O [Example 217, 2-(3-chloro-4-fluorobenzyl)-7-(2,2-dimethylpropionyl)-9-hydroxy-2H-pyrido[1,2-a]pyrazine-1,8-dione hydrochloride] | < 10 |
| O=c1c(-c2cncs2)cn2ccn(Cc3cccc(Cl)c3)c(=O)c2c1O [Example 218, 2-(3-chlorobenzyl)-9-hydroxy-7-(thiazol-5-yl)-2H-pyrido[1,2-a]pyrazine-1,8-dione hydrochloride] | < 10 |
| CNC(=O)c1cn2c(c(O)c1=O)C(=O)N(Cc1cccc(Cl)c1)CC2 [Example 219, 2-(3-chlorobenzyl)-9-hydroxy-1,8-dioxo-1,3,4,8-tetrahydro-2H-pyrido[1,2-a]pyrazine-7-carboxylic acid methylamide] | 10 to 100 |
| CN(C)C(=O)c1cn2c(c(O)c1=O)C(=O)N(Cc1cccc(Cl)c1)CC2 [Example 220, N,N-dimethyl-2-(3-chlorobenzyl)-9-hydroxy-1,8-dioxo-1,3,4,8-tetrahydro-2H-pyrido[1,2-a]pyrazine-7-carboxamide] | 10 to 100 |
| CC(C)(C)C(=O)c1cn2c(c(O)c1=O)C(=O)N(Cc1ccc(F)c(Cl)c1)CC2 [Example 221, 2-(3-chloro-4-fluorobenzyl)-7-(2,2-dimethylpropionyl)-9-hydroxy-3,4-dihydro-2H-pyrido[1,2-a]pyrazine-1,8-dione hydrochloride] | < 10 |
| CNC(=O)c1cn2c(CO)cn(Cc3ccc(F)c(Cl)c3)c(=O)c2c(O)c1=O [Example 222, 2-(3-chloro-4-fluorobenzyl)-9-hydroxy-4-hydroxymethyl-1,8-dioxo-1,8-dihydro-2H-pyrido[1,2-a]pyrazine-7-carboxylic acid methylamide hydrochloride] | < 10 |
| CC(C)(C)C(=O)c1cn2c(c(O)c1=O)C(=O)N(Cc1cccc(Cl)c1)CC2 [Example 223, 2-(3-chlorobenzyl)-7-(2,2-dimethylpropionyl)-9-hydroxy-3,4-dihydro-2H-pyrido[1,2-a]pyrazine-1,8-dione hydrochloride] | 10 to 100 |
| O=c1ccn2ccn(Cc3ccc(Cl)cc3O)c(=O)c2c1O [Example 224, 2-(4-chloro-2-hydroxybenzyl)-9-hydroxy-2H-pyrido[1,2-a]pyrazine-1,8-dione hydrochloride] | 10 to 100 |
| O=C1c2c(O)c(=O)c(-c3nccs3)cn2CCN1Cc1ccc(F)c(Cl)c1 [Example 225, 2-(3-chloro-4-fluorobenzyl)-9-hydroxy-7-(thiazol-2-yl)-3,4-dihydro-2H-pyrido[1,2-a]pyrazine-1,8-dione] | < 10 |
| CN(C(=O)Cn1ccn2ccc(=O)c(O)c2c1=O)c1ccccc1 [Example 226, 2-(9-hydroxy-1,8-dioxo-1,8-dihydro-pyrido[1,2-a]pyrazin-2-yl)-N-methyl-N-phenylacetamide hydrochloride] | 100 to 1000 |
| CNC(=O)c1cn2c(c(O)c1=O)C(=O)N(Cc1ccc(F)c(Cl)c1)CC2 [Example 227, N-methyl-2-(3-chloro-4-fluorobenzyl)-9-hydroxy-1,8-dioxo-1,3,4,8-tetrahydro-2H-pyrido[1,2-a]pyrazine-7-carboxamide] | 10 to 100 |
| CN(C)C(=O)c1cn2c(c(O)c1=O)C(=O)N(Cc1ccc(F)c(Cl)c1)CC2 [Example 228, N,N-dimethyl-2-(3-chloro-4-fluorobenzyl)-9-hydroxy-1,8-dioxo-1,3,4,8-tetrahydro-2H-pyrido[1,2-a]pyrazine-7-carboxamide] | 10 to 100 |
| CC(=O)OCC(C)(C)C(=O)c1cn2ccn(Cc3cccc(Cl)c3)c(=O)c2c(O)c1=O [Example 229, 3-[2-(3-chlorobenzyl)-9-hydroxy-1,8-dioxo-1,8-dihydro-2H-pyrido[1,2-a]pyrazin-7-yl]-2,2-dimethyl-3-oxopropyl acetate hydrochloride] | < 10 |
| CC(C)(CO)C(=O)c1cn2ccn(Cc3cccc(Cl)c3)c(=O)c2c(O)c1=O [Example 230, 2-(3-chlorobenzyl)-9-hydroxy-7-(3-hydroxy-2,2-dimethylpropionyl)-2H-pyrido[1,2-a]pyrazine-1,8-dione hydrochloride] | < 10 |
| O=c1c(-c2cnccn2)cn2ccn(Cc3cccc(Cl)c3)c(=O)c2c1O [Example 231, 2-(3-chlorobenzyl)-9-hydroxy-7-(pyrazin-2-yl)-2H-pyrido [1,2-a]pyrazine-1,8-dione hydrochloride] | < 10 |

Source: patent publication US7211572B2 (Japan Tobacco Inc., priority 2003, dated 2007)
